Common to all, as to experiment: Z'-LYTE kinase panel
What all share (assay type): biochemical

In one experiment the target is T1, CAMK2A (CaMKII alpha) (Homo sapiens, UniProt Q9UQM7).
T1 construct: purchased ThermoFisher (SelectScreen, Z'-LYTE)
In a few lines: (§1)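 Readout is percentage inhibition, obtained from the standard Z′-LYTE protocol with test compound present at 10 µM; screened within a panel of 225 kinases.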

The target of a further experiment is T2, CSNK2A2 (CK2 alpha 2) (Homo sapiens, UniProt P19784).
T2 construct: purchased ThermoFisher (SelectScreen, Z'-LYTE)
The method in brief:
as §1

In the next experiment the target is T3, FES (FPS) (Homo sapiens, UniProt P07332).
T3 construct: purchased ThermoFisher (SelectScreen, Z'-LYTE)
The method in brief:
as §1

Another experiment addresses T4, FGFR2 (Homo sapiens, UniProt P21802).
T4 construct: purchased ThermoFisher (SelectScreen, Z'-LYTE)
The method in brief: as §1

The next experiment concerns the target T5, FGFR3 (Homo sapiens, UniProt P22607).
T5 construct: purchased ThermoFisher (SelectScreen, Z'-LYTE)
In a few lines:
as §1

The next experiment concerns the target T6, FGFR4 (Homo sapiens, UniProt P22455).
T6 construct: purchased ThermoFisher (SelectScreen, Z'-LYTE)
The method in brief: as §1

For another experiment, the target named is T7, GRK5 (Homo sapiens, UniProt P34947).
T7 construct: purchased ThermoFisher (SelectScreen, Z'-LYTE)
In a few lines:
as §1

The target of the next experiment is T8, GRK6 (Homo sapiens, UniProt P43250).
T8 construct: purchased ThermoFisher (SelectScreen, Z'-LYTE)
In a few lines: as §1

The target of a further experiment is T9, HIPK1 (Myak) (Homo sapiens, UniProt Q86Z02).
T9 construct: purchased ThermoFisher (SelectScreen, Z'-LYTE)
In a few lines:
as §1

The next experiment has as its target T10, MAPK11 (p38 beta) (Homo sapiens, UniProt Q15759).
T10 construct: purchased ThermoFisher (SelectScreen, Z'-LYTE)
In a few lines: as §1

Another experiment addresses T11, PLK1 (Homo sapiens, UniProt P53350).
T11 construct: purchased ThermoFisher (SelectScreen, Z'-LYTE)
In a few lines:
as §1

A further experiment addresses T12, PRKCE (PKC epsilon) (Homo sapiens, UniProt Q02156).
T12 construct: purchased ThermoFisher (SelectScreen, Z'-LYTE)
T12 sequence (Q02156 1-737): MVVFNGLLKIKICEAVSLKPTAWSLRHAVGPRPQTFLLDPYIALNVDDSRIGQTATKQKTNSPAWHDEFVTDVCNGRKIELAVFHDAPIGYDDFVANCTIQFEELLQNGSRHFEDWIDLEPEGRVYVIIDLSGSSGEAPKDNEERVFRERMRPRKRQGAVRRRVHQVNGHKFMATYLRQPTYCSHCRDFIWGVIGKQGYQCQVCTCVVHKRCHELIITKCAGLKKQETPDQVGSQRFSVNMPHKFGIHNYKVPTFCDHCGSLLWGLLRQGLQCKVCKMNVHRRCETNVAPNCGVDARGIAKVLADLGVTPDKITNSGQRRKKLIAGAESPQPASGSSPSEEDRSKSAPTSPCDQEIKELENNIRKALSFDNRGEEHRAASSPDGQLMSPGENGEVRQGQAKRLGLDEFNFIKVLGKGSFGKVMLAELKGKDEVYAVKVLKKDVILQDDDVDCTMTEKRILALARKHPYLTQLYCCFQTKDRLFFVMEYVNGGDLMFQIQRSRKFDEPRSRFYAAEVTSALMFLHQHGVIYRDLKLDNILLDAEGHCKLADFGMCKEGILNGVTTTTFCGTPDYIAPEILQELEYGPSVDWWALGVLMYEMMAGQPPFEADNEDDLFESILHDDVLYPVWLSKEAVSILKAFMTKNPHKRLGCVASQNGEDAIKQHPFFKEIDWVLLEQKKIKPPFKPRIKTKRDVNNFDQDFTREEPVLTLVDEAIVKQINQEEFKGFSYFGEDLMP
In a few lines:
as §1

The target of another experiment is T13, RET (Homo sapiens, UniProt P07949).
T13 construct: purchased ThermoFisher (SelectScreen, Z'-LYTE)
In a few lines:
as §1

The next experiment deals with T14, RPS6KA6 (RSK4) (Homo sapiens, UniProt Q9UK32).
T14 construct: purchased ThermoFisher (SelectScreen, Z'-LYTE)
In a few lines:
as §1

For the next experiment, the target named is T15, STK25 (YSK1) (Homo sapiens, UniProt O00506).
T15 construct: purchased ThermoFisher (SelectScreen, Z'-LYTE)
In a few lines: as §1

The target in the next experiment is T16, TYRO3 (RSE) (Homo sapiens, UniProt Q06418).
T16 construct: purchased ThermoFisher (SelectScreen, Z'-LYTE)
T16 sequence (Q06418 41-890): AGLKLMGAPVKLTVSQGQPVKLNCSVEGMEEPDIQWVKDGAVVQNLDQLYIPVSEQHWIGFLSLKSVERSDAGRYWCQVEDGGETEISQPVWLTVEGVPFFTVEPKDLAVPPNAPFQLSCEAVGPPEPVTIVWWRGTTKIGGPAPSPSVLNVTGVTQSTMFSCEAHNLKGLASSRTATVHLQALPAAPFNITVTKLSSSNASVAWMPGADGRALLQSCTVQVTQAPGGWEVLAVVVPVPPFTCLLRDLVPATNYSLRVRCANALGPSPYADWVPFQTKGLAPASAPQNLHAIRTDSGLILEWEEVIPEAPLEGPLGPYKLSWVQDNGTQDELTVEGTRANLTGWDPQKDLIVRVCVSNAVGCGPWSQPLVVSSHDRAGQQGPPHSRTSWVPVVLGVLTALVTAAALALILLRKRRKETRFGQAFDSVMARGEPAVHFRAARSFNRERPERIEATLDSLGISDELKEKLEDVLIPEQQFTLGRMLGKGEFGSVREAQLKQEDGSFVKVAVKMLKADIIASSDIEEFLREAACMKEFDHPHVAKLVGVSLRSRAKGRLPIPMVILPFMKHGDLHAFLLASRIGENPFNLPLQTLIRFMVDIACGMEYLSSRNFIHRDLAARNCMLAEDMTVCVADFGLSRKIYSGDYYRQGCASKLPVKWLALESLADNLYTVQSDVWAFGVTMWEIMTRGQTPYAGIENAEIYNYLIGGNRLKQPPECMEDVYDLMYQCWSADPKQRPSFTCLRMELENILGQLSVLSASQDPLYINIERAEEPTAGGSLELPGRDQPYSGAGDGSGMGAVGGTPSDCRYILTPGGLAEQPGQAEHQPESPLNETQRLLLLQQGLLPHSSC
The method in brief:
as §1

T15 sequence (O00506 whole entry): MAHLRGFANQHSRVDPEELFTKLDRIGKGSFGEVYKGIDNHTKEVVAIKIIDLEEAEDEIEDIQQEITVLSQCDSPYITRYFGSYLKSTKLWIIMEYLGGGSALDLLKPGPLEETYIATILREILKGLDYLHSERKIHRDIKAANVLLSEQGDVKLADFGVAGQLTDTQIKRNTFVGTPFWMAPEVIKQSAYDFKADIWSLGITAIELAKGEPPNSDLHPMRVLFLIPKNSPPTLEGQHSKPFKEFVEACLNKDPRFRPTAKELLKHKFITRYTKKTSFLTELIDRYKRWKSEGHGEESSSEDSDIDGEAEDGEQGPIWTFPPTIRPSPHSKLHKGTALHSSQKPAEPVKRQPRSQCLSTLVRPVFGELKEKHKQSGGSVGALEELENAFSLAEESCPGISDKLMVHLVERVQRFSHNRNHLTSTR
T14 sequence (Q9UK32 whole entry): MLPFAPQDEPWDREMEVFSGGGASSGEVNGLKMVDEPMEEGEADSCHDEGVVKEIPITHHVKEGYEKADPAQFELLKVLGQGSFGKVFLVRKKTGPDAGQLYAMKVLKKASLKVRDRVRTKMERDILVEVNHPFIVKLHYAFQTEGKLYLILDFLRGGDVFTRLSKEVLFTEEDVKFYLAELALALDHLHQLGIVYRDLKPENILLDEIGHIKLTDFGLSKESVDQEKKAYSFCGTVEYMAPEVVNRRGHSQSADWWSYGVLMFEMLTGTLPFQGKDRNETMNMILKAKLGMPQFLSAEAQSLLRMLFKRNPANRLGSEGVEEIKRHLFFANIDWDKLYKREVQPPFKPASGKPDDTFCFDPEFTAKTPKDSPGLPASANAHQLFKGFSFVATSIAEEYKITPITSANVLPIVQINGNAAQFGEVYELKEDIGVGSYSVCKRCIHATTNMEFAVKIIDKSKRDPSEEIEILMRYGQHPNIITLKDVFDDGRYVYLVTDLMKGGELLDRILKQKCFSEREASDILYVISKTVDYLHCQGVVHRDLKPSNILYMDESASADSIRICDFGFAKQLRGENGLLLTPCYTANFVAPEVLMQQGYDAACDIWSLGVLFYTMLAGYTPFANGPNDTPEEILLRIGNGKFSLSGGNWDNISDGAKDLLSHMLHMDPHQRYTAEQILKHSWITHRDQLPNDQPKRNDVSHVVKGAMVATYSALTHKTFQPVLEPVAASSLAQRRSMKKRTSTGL
T13 sequence (P07949 29-1114): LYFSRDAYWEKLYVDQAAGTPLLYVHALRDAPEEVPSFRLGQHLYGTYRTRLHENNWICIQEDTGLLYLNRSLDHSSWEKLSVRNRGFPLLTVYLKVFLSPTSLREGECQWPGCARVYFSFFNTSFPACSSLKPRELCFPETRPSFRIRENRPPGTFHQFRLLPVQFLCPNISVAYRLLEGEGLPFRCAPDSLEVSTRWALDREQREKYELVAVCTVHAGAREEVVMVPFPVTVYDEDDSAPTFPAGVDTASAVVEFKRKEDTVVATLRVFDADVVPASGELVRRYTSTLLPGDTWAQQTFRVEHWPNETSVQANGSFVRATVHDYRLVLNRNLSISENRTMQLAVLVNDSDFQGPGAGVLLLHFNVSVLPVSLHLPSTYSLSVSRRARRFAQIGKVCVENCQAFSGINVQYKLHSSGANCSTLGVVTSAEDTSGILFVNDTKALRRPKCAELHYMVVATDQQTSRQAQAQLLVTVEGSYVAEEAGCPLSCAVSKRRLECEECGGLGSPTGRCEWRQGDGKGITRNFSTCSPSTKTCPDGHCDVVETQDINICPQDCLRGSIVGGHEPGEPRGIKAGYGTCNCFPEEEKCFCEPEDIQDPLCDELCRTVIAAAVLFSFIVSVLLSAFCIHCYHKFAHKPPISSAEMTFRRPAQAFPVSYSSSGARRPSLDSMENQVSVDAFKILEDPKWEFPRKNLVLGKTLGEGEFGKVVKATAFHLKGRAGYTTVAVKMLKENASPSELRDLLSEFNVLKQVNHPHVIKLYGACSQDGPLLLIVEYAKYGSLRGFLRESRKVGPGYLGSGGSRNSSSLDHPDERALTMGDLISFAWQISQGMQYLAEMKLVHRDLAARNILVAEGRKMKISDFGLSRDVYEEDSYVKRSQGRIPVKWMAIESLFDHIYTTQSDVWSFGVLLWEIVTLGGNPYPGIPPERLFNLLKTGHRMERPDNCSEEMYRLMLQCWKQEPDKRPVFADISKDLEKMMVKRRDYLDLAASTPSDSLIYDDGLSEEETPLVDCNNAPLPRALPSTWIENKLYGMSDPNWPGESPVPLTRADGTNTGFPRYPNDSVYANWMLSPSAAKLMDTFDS
T9 sequence (Q86Z02 whole entry): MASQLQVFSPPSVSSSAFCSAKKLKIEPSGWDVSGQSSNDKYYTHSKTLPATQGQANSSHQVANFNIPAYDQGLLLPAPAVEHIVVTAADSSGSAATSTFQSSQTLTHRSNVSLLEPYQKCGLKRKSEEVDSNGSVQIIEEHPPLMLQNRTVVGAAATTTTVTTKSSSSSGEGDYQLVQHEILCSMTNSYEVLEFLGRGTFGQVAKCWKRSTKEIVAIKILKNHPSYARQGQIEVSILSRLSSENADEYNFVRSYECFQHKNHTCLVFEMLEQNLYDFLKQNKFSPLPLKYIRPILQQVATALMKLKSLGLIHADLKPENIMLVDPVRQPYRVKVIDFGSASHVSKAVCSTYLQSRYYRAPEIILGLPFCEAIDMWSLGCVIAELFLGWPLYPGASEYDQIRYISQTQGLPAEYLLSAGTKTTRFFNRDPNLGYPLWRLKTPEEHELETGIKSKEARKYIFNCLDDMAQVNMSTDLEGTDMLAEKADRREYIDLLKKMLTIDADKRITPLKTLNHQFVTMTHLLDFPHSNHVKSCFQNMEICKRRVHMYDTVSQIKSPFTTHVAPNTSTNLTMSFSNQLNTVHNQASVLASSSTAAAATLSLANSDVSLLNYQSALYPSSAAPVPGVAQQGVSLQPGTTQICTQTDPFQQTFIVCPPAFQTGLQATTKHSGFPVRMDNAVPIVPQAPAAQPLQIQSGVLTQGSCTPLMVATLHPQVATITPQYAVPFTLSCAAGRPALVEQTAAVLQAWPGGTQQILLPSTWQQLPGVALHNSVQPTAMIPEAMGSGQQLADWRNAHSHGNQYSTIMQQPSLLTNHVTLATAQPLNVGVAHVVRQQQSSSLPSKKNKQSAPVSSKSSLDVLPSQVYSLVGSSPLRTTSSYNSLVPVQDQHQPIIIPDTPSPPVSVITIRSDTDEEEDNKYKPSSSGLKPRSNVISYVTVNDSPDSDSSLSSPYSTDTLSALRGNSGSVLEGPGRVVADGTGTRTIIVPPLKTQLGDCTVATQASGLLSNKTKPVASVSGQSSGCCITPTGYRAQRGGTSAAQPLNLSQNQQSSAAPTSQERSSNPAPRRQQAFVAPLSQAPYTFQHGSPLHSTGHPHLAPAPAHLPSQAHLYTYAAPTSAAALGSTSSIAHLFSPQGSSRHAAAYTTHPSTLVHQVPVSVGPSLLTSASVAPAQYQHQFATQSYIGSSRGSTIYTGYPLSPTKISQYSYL
T10 sequence (Q15759 whole entry): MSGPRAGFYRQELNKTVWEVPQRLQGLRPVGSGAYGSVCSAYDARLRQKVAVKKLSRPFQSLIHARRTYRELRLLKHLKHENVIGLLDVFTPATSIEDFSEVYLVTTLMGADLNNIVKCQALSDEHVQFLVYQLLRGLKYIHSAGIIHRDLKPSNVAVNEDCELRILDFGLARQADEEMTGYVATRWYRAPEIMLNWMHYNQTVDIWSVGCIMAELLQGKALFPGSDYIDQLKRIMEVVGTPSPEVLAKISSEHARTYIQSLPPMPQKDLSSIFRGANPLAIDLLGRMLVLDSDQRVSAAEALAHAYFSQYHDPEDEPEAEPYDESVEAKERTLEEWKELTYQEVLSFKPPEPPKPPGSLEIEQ
T3 sequence (P07332 whole entry): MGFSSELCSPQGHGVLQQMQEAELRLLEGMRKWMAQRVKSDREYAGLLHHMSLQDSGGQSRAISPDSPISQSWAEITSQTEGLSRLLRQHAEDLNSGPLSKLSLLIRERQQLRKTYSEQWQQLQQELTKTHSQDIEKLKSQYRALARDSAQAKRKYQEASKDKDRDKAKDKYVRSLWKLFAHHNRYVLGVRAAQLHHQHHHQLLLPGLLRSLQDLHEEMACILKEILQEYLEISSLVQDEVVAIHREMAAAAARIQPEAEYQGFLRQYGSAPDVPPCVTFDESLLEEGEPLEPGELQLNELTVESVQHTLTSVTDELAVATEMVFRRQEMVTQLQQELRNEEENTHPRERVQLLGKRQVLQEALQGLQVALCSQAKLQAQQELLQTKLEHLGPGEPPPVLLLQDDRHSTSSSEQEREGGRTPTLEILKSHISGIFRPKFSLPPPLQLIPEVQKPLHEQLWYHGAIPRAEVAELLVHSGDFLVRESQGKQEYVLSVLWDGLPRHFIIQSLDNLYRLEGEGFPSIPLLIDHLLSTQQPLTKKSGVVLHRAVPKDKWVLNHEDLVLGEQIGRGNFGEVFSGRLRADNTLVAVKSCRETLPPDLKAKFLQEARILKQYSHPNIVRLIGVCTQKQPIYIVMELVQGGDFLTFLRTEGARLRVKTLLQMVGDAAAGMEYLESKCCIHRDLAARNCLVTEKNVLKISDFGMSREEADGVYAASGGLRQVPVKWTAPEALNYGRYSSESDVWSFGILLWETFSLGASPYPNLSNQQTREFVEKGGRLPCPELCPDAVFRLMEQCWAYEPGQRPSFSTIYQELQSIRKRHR
T2 sequence (P19784 whole entry): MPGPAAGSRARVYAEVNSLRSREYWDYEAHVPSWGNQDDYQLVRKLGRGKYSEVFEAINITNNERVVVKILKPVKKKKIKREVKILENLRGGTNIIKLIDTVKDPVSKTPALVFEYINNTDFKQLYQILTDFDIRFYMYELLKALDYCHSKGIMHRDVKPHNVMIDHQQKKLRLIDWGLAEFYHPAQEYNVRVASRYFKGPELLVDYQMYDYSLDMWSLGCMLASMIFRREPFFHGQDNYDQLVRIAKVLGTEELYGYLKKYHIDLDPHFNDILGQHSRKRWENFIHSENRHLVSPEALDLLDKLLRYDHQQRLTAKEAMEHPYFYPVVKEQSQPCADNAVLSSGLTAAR

The term inhibition denotes the change of the read-out against control, counted positive when it falls. With `Cc1ncc(-c2nc(Nc3ccc(C(=O)NCCN4CCCCC4)cc3)ncc2F)n1C(C)C` [Compound 3], the inhibition at 10 µM against CAMK2A (CaMKII alpha) came out at 89%; at CSNK2A2 (CK2 alpha 2), 77%; on FES (FPS), 106%; against FGFR2 it was 88%; against FGFR3 it was 54%; against FGFR4 it was 19%. Also, the inhibition at 10 µM at GRK5 worked out at 39%; on GRK6 it was 53%; on HIPK1 (Myak), 83%; at MAPK11 (p38 beta) it was 22%; against PLK1, 57%; on PRKCE (PKC epsilon), 45%. Further, the inhibition at 10 µM against RET is 95%; at RPS6KA6 (RSK4), 82%; against STK25 (YSK1), 72%; against TYRO3 (RSE) it was 92%.

In the case of `Cc1cc(Nc2nc(N)nn2C(=O)NC(C)C)ccc1Cl` [Compound 5], the inhibition at 10 µM at CAMK2A (CaMKII alpha) is -10%; on CSNK2A2 (CK2 alpha 2), 1.46%; against FES (FPS), 9%; on FGFR2 it was 53%; against FGFR3 it was 13%; against FGFR4, 10%. Further, the inhibition at 10 µM was -0.422% on GRK5; -0.556% against GRK6; -2.24% against HIPK1 (Myak); 4.21% at MAPK11 (p38 beta); 0.455% at PLK1; -17% against PRKCE (PKC epsilon). Moreover, the inhibition at 10 µM stood at 44% at RET, 58% against RPS6KA6 (RSK4), 12% against STK25 (YSK1) and 14% on TYRO3 (RSE).

For “XMD8-92 [Compound 2, reference compound]”, the “CAMK2A (CaMKII alpha) % Inhibition” value on CAMK2A (CaMKII alpha) (10 µM compound, ATP Km app) amounted to 59%. The “CSNK2A2 (CK2 alpha 2) % Inhibition” value at CSNK2A2 (CK2 alpha 2) (10 µM compound, ATP Km app) is -1.72%. In addition, on FES (FPS) (10 µM compound, ATP Km app), the “FES (FPS) % Inhibition” value is recorded as 78%. The “FGFR2 % Inhibition” value on FGFR2 (10 µM compound, ATP Km app) is on record as 33%. At FGFR3 (10 µM compound, ATP Km app), the “FGFR3 % Inhibition” value was determined as 9%. Further, the “FGFR4 % Inhibition” value at FGFR4 (10 µM compound, ATP Km app) stood at 19%. Besides, at GRK5 (10 µM compound, ATP Km app), the “GRK5 % Inhibition” value worked out at 6%. For the same molecule, the “GRK6 % Inhibition” value at GRK6 (10 µM compound, ATP Km app) is 1.47%. Moreover, at HIPK1 (Myak) (10 µM compound, ATP Km app), the “HIPK1 (Myak) % Inhibition” value is recorded as 6%. Moreover, at MAPK11 (p38 beta) (10 µM compound, ATP Km app), the “MAPK11 (p38 beta) % Inhibition” value came to 10%. Further, the “PLK1 % Inhibition” value on PLK1 (10 µM compound, ATP Km app) is recorded as 10%. Further, the “PRKCE (PKC epsilon) % Inhibition” value on PRKCE (PKC epsilon) (10 µM compound, ATP Km app) turned out to be 1.55%. Also, the “RET % Inhibition” value at RET (10 µM compound, ATP Km app) is 40%. Besides, the “RPS6KA6 (RSK4) % Inhibition” value at RPS6KA6 (RSK4) (10 µM compound, ATP Km app) came to 72%. Further, on STK25 (YSK1) (10 µM compound, ATP Km app), the “STK25 (YSK1) % Inhibition” value worked out at 9.49%. Moreover, at TYRO3 (RSE) (10 µM compound, ATP Km app), the “TYRO3 (RSE) % Inhibition” value turned out to be 9%.

These data come from article PMC4854315, “Discovery of a novel allosteric inhibitor-binding site in ERK5: comparison with the canonical kinase hinge ATP-binding site” (Acta Crystallographica. Section D, Structural Biology, 2016).
